In patent publication US20230405078A1, “DETECTION AND TREATMENT OF INTESTINAL FIBROSIS” (THE REGENTS OF THE UNIVERSITY OF CALIFORNIA, priority 2020, published 2023):

How the values were obtained:
CCD-18Co fibroblasts = test: Elafin exposure of serum-starved CCD-18Co fibroblasts (Example 1); assay type: cell-based, human; details: elafin 0.1-3 μg/ml, 24 hours, no TGF-β1
Description: FIG. 6. Elafin promotes fibrogenesis in human colonic fibroblasts. (A) The human colonic CCD-18Co fibroblasts were incubated with 100 μl/ml (10%) of human sera from normal, stricturing CD, and non-stricturing CD patients in serum-free DMEM for 24 hours. (B) The human colonic CCD-18Co fibroblasts were incubated with 100 μl/ml (10%) of human sera from high elafin CD group (>8000 pg/ml) and low elafin CD group (<8000 pg/ml) in serum-free DMEM for 24 hours. (C) Serum-starved CCD-18Co fibroblasts were pretreated with 15 μg/ml of anti-elafin neutralizing antibody or control antibody for 30 minutes, followed by exposure to (100 μl/ml) human sera from normal and stricturing CD patients for 24 hours. Six serum donors per group. (D) Serum-starved CCD-18Co fibroblasts were exposed to elafin (0.1-3 μg/ml) for 24 hours. Pro-COL1A1 protein levels in cell lysates were determined by ELISA. (E) Serum-starved primary human intestinal fibroblasts from CD patients were exposed to elafin for 24 hours. mRNA expression was determined by real-time RT-PCR.
Human CCD-18Co intestinal fibroblasts (ATCC) (2×10^6 cells/plate) were cultured in minimal essential medium Eagle's medium (MEM) containing 10% fetal bovine serum (FBS) and 1% penicillin-streptomycin (P/S) (Invitrogen). […]

Salmonella-infected mice = test: Salmonella-mediated cecal fibrosis in mice; assay type: in vivo; details: Salmonella model
Description: Eight-week-old male and female 129Sv/J mice (#000691, Jackson Laboratories) were administered 20 mg streptomycin via oral gavage. Twenty-four hours later, the mice were orally infected with Salmonella typhimurium SL1344 strain 1×10^8 colony-forming units by oral gavage to induce cecal fibrosis.
Origene or miR205-5p-OFF lentivrus (mm35328) or miR205-5p-OE lentivirus (mm15214) from Applied Biological Materials on day 14. Some infected mice received oral antibiotics mixture in drinking water ad libitum from day 14 to day 21 to suppress intestinal microbiota. […]
H&E and Masson Trichrome (MT) staining were performed as described previously. Microphotographs were recorded at multiple locations and scored by two investigators blindly. Intestinal injuries were scored (0-12). The severity of intestinal fibrosis was assessed by MT staining and scored (0-3). […]
Total RNA was isolated by an RNeasy kit (#74104, Qiagen) and reverse transcribed into cDNA by a high-capacity cDNA reverse transcription kit (#4368813, ThermoFisher). […] Relative mRNA/miRNA quantification was performed by comparing test groups and control groups after normalization with endogenous control genes. The fold changes are expressed as 2^ΔΔCt. […]
Overall disease activity (ODA) was calculated by % change of histology and fibrosis scores and colonic mRNA expression of fibrosis- and inflammation-related genes. […]

With “Elafin: small (6 kDa) human elastase-specific protease inhibitor and antimicrobial peptide; active form SEQ ID NO: 2 (AQEPVKGPVSTKPGSCPIILIRCAMLNPPNRCLKDTDCPGIKKCCEGSCGMACFVPQ; listed as Homo sapiens)” the “pro-collagen 1A1 protein expression” value (CCD-18Co fibroblasts) was “significantly increased” and the overall disease activity (Salmonella-infected mice) was 29%.
